The values that follow come from US20030198614A1, “Hair growers” (priority 2000, published 2003).

For assay [1], the system named is telogen hair roots of male subjects. Briefly: Trichogram test. The assay is classed as in vivo, human. Conditions: 50 nM in 70% ethanol, 2 ml twice a day on scalp for 6 months, 10 male subjects. Here is the method:
As test materials, Compound 1 and Compound 2 were employed. Each test material was dissolved in 70% ethanol similarly to Experiment 1 to obtain a sample (test material concentration: 50 nM).
The hair roots of hairs pulled out before and after the use of each sample were examined by a microscope to determine the telogen hair root count on the basis of the hair root morphology, and the increase or decrease in the rate was employed as an index for evaluating the hair growth promoting effect.
Specifically, each sample was applied onto the scalp of each of 10 male subjects twice a day in a 2 ml aliquot each time continuously for 6 months. 100 hairs per subject were pulled out immediately before the application and immediately after completion of 6-month application to count the telogen hair roots. The rate (%) of the number of the subjects whose telogen hair root after the application was decreased by 20% or more, changed by ±20% or increased by 20% or more with respect to that before the application was calculated.

Assay [2] is described as follows: Hair regrowth inducing effect test by cell cluster-accompanied culture method. Conditions: Homo sapiens, Human dermal papilla cell, 48 h, 2 days, Alamer Blue fluorescence, relative to negative control, read-out: Relative respiration level (%). It is filed as cell-based. Here is the method:
The hair regrowth inducing effect was evaluated using, as an index, an increase in respiration level of a cell cluster formed under the coexistence of a normal human outer root sheath cell and a normal human dermal papilla cell.
Normal human dermal papilla cell (DP): A DP obtained by a primary culture from a head hair was subcultured three times in a 10% FBS-supplemented DMEM medium in a 75 cm^2 incubation flask coated with Type I collagen, and then stored while being frozen in a liquid nitrogen using a cell cryopreservation solution (Cellbanker II: DIA-IATRON).
Normal human outer root sheath cell (ORS): An ORS obtained by a primary culture from a head hair was subcultured three times in a SFM medium in a 75 cm^2 incubation flask coated with Type I collagen, and then stored while being frozen in a liquid nitrogen using Cellbanker II.
The DP and ORS cells stored as frozen were thawed, washed with an ice-cooled SFM medium, dispersed in the same medium and subjected to an accurate cell density measurement using a hemocytometer. Each cell density was adjusted at 5×10^4 cells/ml accurately, and the cell dispersions in equal volumes were combined under cooling with ice. 80 μl aliquots of the combined cell suspending SFM medium were inoculated into individual wells of a 96-well microplate (Sumilon celltight, spheroid 96U plate), and incubated for 2 days. The cell count in a single well upon inoculation was 2,000 cells for each of DP and ORS, thus 4,000 cells in total.
Each 80 μl of a test material-supplemented William's E(+) medium (William's E medium supplemented with 10 μg/ml transferrin, 10 ng/ml hydrocortisone, 10 μg/ml insulin and 10 ng/ml sodium selenite) was added to each well and incubated further for 2 days.
The test material-supplemented William's E(+) medium added to each well was prepared by dissolving the test material in ethanol at a concentration of 10 mM or 100 mM and adding to William's E(+) medium at 0.2% each. Accordingly, the final concentration of the test material in each well was 10 μM or 100 μM, and each final concentration of ethanol was 0.1%.
As a negative control, 80 μl of William's E(+) medium containing 0.2% ethanol was added (final concentration of ethanol was 0.1%).
Alamer Blue, SFM medium and William's E(+) medium were mixed in 2:1:1 ratio, warmed at 37° C. and then 40 μl aliquots were added to individual wells and allowed to react for 6 hours at 37° C. After completion of the reaction, 100 μl aliquots were taken from individual wells, and transferred to a white 96-well plate for fluorescence measurement (Opaque Plate).
A fluorometer (Labsystems Fluoroskan II) was used at the excitation wavelength of 544 nm and the fluorescent wavelength of 590 nm to measure the fluorescence intensity of each well, from which the fluorescent intensity of a cell-free reaction mixture (i.e., the reaction mixture treated similarly using a cell-free SFM medium) was subtracted to obtain a respiration level under each condition. From thus obtained respiration level, a relative respiration level(%) was calculated according to the following equation.
Relative respiration level(%)={Respiration level (test material)}/{Respiration level (negative control)}×100

As for `CCCCCCCCCCCCCCCCOCC(O)COC` (stereo not shown) [Compound 2, 1-Hexadecyloxy-3-methoxy-2-propanol], in assay [1], the “Rate of telogen hair root: 20% or more decrease (rate of subjects)” value is listed as 60%, the “Rate of telogen hair root: 20% or more increse (rate of subjects)” value is given as 10% and the “Rate of telogen hair root: ±20% (rate of subjects)” value was found to be 30%. Further, in assay [2], the activity at 10 µM turned out to be 108% and the activity at 100 µM worked out at 122%.

`CCCCCCCCCCCCCCCCOCC(COC)OC` (stereo not shown) [Compound 4, 1-(2,3-Dimethoxypropoxy)hexadecane]: in assay [2], the activity at 10 µM amounted to 127% and the activity at 100 µM was determined as 134%.

Regarding `CCCCCCCCCCCCCCCCOC(CO)COC` (stereo not shown) [Compound 1, 2-Hexadecyloxy-3-methoxy-1-propanol], in assay [1], the “Rate of telogen hair root: 20% or more decrease (rate of subjects)” value was 70%, the “Rate of telogen hair root: 20% or more increse (rate of subjects)” value was 0% and the “Rate of telogen hair root: ±20% (rate of subjects)” value is given as 30%. Moreover, in assay [2], the activity at 10 µM turned out to be 139% and the activity at 100 µM came to 157%.

Turning to `CCCCCCCCCCCCCCCCOCCCO` [Compound 3, 3-Hexadecyloxy-1-propanol], in assay [2], the activity at 10 µM is 106% and the activity at 100 µM was 108%.

In the case of `CCCCCCCCCCCCCCCCCCC(CO)OC` (stereo not shown) [Compound 5, 2-Methoxy-1-eicosanol], in assay [2], the activity at 10 µM was 124% and the activity at 100 µM stood at 130%.
